From publication PMC11728000, “Antitumor Activity and Multi-Target Mechanism of Phenolic Schiff Bases Bearing Methanesulfonamide Fragments: Cell Cycle Analysis and a Molecular Modeling Study” (International Journal of Molecular Sciences, 2024)
“And” between values parts separate entries of the source, which are not always exact repeats. Identical values can stand only once.

What was measured:
SK-MEL-5 [1] = tested on: SK-MEL-5; design: method as in https://dtp.cancer.gov/dtpstandard/dwindex/index.jsp; conditions: ref https://dtp.cancer.gov/dtpstandard/dwindex/index.jsp; cited from earlier work
HL-60(TB) = tested on: HL-60(TB); design: method as in https://dtp.cancer.gov/dtpstandard/dwindex/index.jsp; conditions: ref https://dtp.cancer.gov/dtpstandard/dwindex/index.jsp; cited from earlier work
MDA-MB-231/ATCC = test: NCI anticancer screening (SRB), Breast Cancer subpanel; format: cell-based, human; conditions: 10.0 µM in one dose
MDA-MB-435 = test: NCI anticancer screening (SRB), Melanoma subpanel; format: cell-based, human; conditions: 10.0 µM in one dose
786-0 = test: NCI anticancer screening (SRB), Renal Cancer subpanel; format: cell-based, human; conditions: 10.0 µM in one dose
EKVX = test: NCI anticancer screening (SRB), Non-Small Cell Lung Cancer subpanel; format: cell-based, human; conditions: 10.0 µM in one dose
LOX IMVI = test: NCI anticancer screening (SRB), Melanoma subpanel; format: cell-based, human; conditions: 10.0 µM in one dose
OVCAR-8 = test: NCI anticancer screening (SRB), Ovarian Cancer subpanel; format: cell-based, human; conditions: 10.0 µM in one dose
HCT-116 = test: NCI anticancer screening (SRB), Colon Cancer subpanel; format: cell-based, human; conditions: 10.0 µM in one dose
CAKI-1 = test: NCI anticancer screening (SRB), Renal Cancer subpanel; format: cell-based, human; conditions: 10.0 µM in one dose
SNB-19 = test: NCI anticancer screening (SRB), CNS Cancer subpanel; format: cell-based, human; conditions: 10.0 µM in one dose
UACC-62 = test: NCI anticancer screening (SRB), Melanoma subpanel; format: cell-based, human; conditions: 10.0 µM in one dose
OVCAR-4 = test: NCI anticancer screening (SRB), Ovarian Cancer subpanel; format: cell-based, human; conditions: 10.0 µM in one dose
NCI-H226 = test: NCI anticancer screening (SRB), Non-Small Cell Lung Cancer subpanel; format: cell-based, human; conditions: 10.0 µM in one dose
in vitro = conditions: human
Protocol: the measured protein at the end of the drug treatment as compared to that at the beginning) indicating a net loss of cells following treatment was calculated from [(Ti − Tz)/Tz] […] = − 50.
Values were calculated for each of these three parameters if the activity level was reached; however, if the effect was not reached or exceeded, that parameter's value was expressed as more or less than the maximum or minimum concentration tested. The log GI50, log TGI, and log LC50 were then determined and defined as the mean of the logs of the individual GI50, TGI, and LC50 values. The lowest values are obtained with the most sensitive cell lines. The compound with log GI50 values −4 and <−4 was declared active.
2. In vitro cytotoxic activity towards normal fibroblast (WI-38) cells Cell Lines were obtained from the American Type Culture Collection; cells were cultured using DMEM (Invitrogen/Life Technologies) supplemented with 10% FBS (Hyclone), ten ug/ml of insulin (Sigma), and 1% penicillin–streptomycin. Cultures were removed from the incubator into a laminar flow hood, reconstituted with 3 mL of balanced salt solution without phenol red and serum, and then added to an amount equal to 10% of the culture medium volume. Cultures returned to the incubator for 2–4 h. After the incubation period, the resulting formazan crystals dissolved […]
medium volume. The absorbance was measured Spectrophotometrically at a wavelength of 570 […]
3. In vitro cyclooxygenase (COX-2) inhibition assay
The ability of the test compounds to inhibit COX-2 was determined using an enzyme immunoassay […]
manufacturer’s instructions.

RXF 393 = test: NCI anticancer screening (SRB), Renal Cancer subpanel; format: cell-based, human; conditions: 10.0 µM in one dose
caspase-9 = test: Apoptotic markers assay, caspase-9 level in MCF-7 cells; format: cell-based, human; conditions: MCF-7 cells treated at IC50 concentrations; vs untreated control = 1
Protocol: We measured the apoptosis promoter Bax levels, the apoptosis inhibitor Bcl−2, and the apoptosis coordination enzymes caspase-8 and caspase-9 [32].
The apoptotic marker method was carried out using the reported procedure using MCF-7, the cancer cell line (Supplementary Materials). […]
7. Caspase-8 and 9 activation assay
A breast carcinoma (MCF-7) cell line was obtained from ATCC. […]
allowed cells to grow at 37 °C, stimulated with the compounds to be tested for caspase-8 or caspase-9 and lysed with Cell Extraction Buffer. Standard Diluent Buffer was used to dilute the lysate over the range of the assay and measure human active caspase-8 or caspase-9 content. (cells are Plated in a density of 1.2-1.8 X 10,000 cells/well in a volume of 100 µL complete growth medium + 100 µL of the tested compound per well in a 96-well plate for 24/48 h before the enzyme assay).
8. Evaluation of Bax and Bcl-2 expressions m RNA isolation was carried out using an RNeasy extraction kit, up to 1 X 107 cells. They were disrupted in Buffer RLT and homogenized. Ethanol was added to the lysate to promote the selective binding of RNA to the RNeasy membrane. Then, the sample was applied to the RNeasy

OVCAR-5 = test: NCI anticancer screening (SRB), Ovarian Cancer subpanel; format: cell-based, human; conditions: 10.0 µM in one dose
SW-620 = test: NCI anticancer screening (SRB), Colon Cancer subpanel; format: cell-based, human; conditions: 10.0 µM in one dose
A498 = test: NCI anticancer screening (SRB), Renal Cancer subpanel; format: cell-based, human; conditions: 10.0 µM in one dose
A549/ATCC = test: NCI anticancer screening (SRB), Non-Small Cell Lung Cancer subpanel; format: cell-based, human; conditions: 10.0 µM in one dose
NCI-H23 = test: as above; format: cell-based, human; conditions: 10.0 µM in one dose
SF-295 = test: NCI anticancer screening (SRB), CNS Cancer subpanel; format: cell-based, human; conditions: 10.0 µM in one dose
T-47D = test: NCI anticancer screening (SRB), Breast Cancer subpanel; format: cell-based, human; conditions: 10.0 µM in one dose
EGFR = EGFR (Homo sapiens, UniProt P00533); test: EGFR tyrosine kinase inhibition assay (Kinase-Glo MAX)
Sequence of EGFR (P00533 25-1210): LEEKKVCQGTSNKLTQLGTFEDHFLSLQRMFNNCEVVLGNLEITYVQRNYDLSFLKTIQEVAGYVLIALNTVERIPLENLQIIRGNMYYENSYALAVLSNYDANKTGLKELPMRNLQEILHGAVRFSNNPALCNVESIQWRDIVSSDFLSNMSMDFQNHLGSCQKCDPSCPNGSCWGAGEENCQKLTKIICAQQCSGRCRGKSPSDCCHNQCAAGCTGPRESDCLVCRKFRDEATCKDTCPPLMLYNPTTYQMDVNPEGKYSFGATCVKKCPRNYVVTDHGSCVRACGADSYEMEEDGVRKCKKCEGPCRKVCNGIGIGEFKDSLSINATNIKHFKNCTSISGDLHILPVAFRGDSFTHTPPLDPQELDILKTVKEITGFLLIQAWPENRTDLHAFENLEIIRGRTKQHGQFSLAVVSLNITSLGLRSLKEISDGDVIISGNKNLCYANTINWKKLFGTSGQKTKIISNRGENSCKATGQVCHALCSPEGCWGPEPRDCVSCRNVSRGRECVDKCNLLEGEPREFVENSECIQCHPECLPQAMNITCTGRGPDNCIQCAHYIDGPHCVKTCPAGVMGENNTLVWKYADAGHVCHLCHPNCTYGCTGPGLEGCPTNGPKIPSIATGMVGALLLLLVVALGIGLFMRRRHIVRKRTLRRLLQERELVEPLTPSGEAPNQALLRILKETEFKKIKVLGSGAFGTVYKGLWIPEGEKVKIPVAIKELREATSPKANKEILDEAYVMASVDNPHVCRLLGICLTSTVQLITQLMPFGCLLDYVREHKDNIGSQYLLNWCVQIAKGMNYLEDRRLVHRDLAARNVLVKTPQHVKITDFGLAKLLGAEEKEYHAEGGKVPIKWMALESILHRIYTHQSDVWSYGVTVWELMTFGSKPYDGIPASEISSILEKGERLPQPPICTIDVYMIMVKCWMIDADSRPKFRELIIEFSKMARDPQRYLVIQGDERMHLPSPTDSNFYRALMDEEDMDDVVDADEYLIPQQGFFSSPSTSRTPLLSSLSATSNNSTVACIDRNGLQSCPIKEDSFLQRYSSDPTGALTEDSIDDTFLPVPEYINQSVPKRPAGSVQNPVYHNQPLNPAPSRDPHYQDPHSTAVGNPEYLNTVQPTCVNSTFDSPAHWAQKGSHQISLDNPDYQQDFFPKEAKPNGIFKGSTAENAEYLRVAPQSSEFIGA

HCT-15 = test: NCI anticancer screening (SRB), Colon Cancer subpanel; format: cell-based, human; conditions: 10.0 µM in one dose
SF-539 = test: NCI anticancer screening (SRB), CNS Cancer subpanel; format: cell-based, human; conditions: 10.0 µM in one dose
MALME-3M = test: NCI anticancer screening (SRB), Melanoma subpanel; format: cell-based, human; conditions: 10.0 µM in one dose
SK-MEL-5 [2] = test: NCI anticancer screening (SRB), Melanoma subpanel; format: cell-based, human; conditions: 10.0 µM in one dose
NCI-H460 = test: NCI anticancer screening (SRB), Non-Small Cell Lung Cancer subpanel; format: cell-based, human; conditions: 10.0 µM in one dose
PC-3 = test: NCI anticancer screening (SRB), Prostate Cancer subpanel; format: cell-based, human; conditions: 10.0 µM in one dose

Question: What does the source list for `Cc1ccc(-c2cc(C(F)(F)F)nn2-c2ccc(S(N)(=O)=O)cc2)cc1` [Celecoxib, celecoxib]?
Answer: GI50 (SK-MEL-5 [1]): 15.8 µM; GI50 (HL-60(TB)): 15.8 µM

Question: What does the source list for `CS(=O)(=O)Nc1ccc(C(=O)NN=Cc2ccccc2O)cc1` [Compound 7]?
Answer: GI% (MDA-MB-231/ATCC): 34%; GI% (MDA-MB-435): 24%; GI% (786-0): 25%; GI% (EKVX): 26%; GI% (LOX IMVI): 53%; GI% (OVCAR-8): 32%; GI% (HCT-116): 59%; GI% (CAKI-1): 35%; GI% (SNB-19): 32%; GI% (UACC-62): 35%; GI% (OVCAR-4): 53%; GI% (NCI-H226): 25%; IC50 (in vitro): 111 µM; GI% (RXF 393): 21%; Casp9, Gene Expression (Fold Change) (caspase-9): 2.99 fold change and 2.990 fold change; GI% (OVCAR-5): 23%; GI% (SW-620): 35%; GI% (A498): 16%; GI% (A549/ATCC): 11%; GI% (NCI-H23): 27%; GI% (SF-295): 35%; GI% (T-47D): 18%; IC50 (EGFR): 0.752 ± 0.05 µM; GI% (HCT-15): 67%; GI% (SF-539): 40%; GI% (MALME-3M): 24%; GI% (SK-MEL-5 [2]): 33%; GI% (NCI-H460): 21%; GI% (PC-3): 38%
